Experiments:
Assay type in all cases: functional
Clonostachys rosea [1] = test: Toxicity against Bionectria ochroleuca I19 assessed as inhibition of mycelial growth at 0.3 to 1.8 mg/ml measured every 24 hr intervals over 192 hr
Clonostachys rosea [2] = test: Toxicity against Bionectria ochroleuca I62 assessed as inhibition of mycelial growth at 0.3 to 1.8 mg/ml measured every 24 hr intervals over 192 hr
Clonostachys rosea [3] = test: Toxicity against Bionectria ochroleuca assessed as inhibition of conidial germination at 0.3 to 1.8 mg/ml measured every 24 hr intervals over 192 hr
Clonostachys rosea [4] = test: Toxicity against Bionectria ochroleuca assessed as inhibition of mycelial growth at 0.3 to 1.8 mg/ml measured every 24 hr intervals over 192 hr
Clonostachys rosea [5] = test: Toxicity against Bionectria ochroleuca I60 assessed as inhibition of mycelial growth at 0.3 to 1.8 mg/ml measured every 24 hr intervals over 192 hr
Clonostachys rosea [6] = test: Toxicity against Bionectria ochroleuca I61 assessed as inhibition of mycelial growth at 0.3 to 1.8 mg/ml measured every 24 hr intervals over 192 hr
Clonostachys rosea [7] = test: Toxicity against Bionectria ochroleuca I62 assessed as inhibition of mycelial growth at 0.003 to 0.020 mg/ml measured every 24 hr intervals over 192 hr
Clonostachys rosea [8] = test: Toxicity against Bionectria ochroleuca I61 assessed as inhibition of mycelial growth at 0.003 to 0.020 mg/ml measured every 24 hr intervals over 192 hr
Clonostachys rosea [9] = test: Toxicity against Bionectria ochroleuca I60 assessed as inhibition of mycelial growth at 0.003 to 0.020 mg/ml measured every 24 hr intervals over 192 hr
Clonostachys rosea [10] = test: Toxicity against Bionectria ochroleuca assessed as inhibition of conidial germination at 0.003 to 0.020 ug/ml measured every 24 hr intervals over 192 hr
Clonostachys rosea [11] = test: Toxicity against Bionectria ochroleuca I19 assessed as inhibition of mycelial growth at 0.003 to 0.020 mg/ml measured every 24 hr intervals over 192 hr
Clonostachys rosea [12] = test: Toxicity against Bionectria ochroleuca assessed as inhibition of mycelial growth at 0.003 to 0.020 ug/ml measured every 24 hr intervals over 192 hr
Clonostachys rosea [13] = test: Toxicity against Bionectria ochroleuca assessed as inhibition of mycelial growth at 0.9 to 1.13 mg/ml measured every 24 hr intervals over 192 hr
Clonostachys rosea [14] = test: Toxicity against Bionectria ochroleuca assessed as inhibition of conidial germination at 0.9 to 1.13 mg/ml measured every 24 hr intervals over 192 hr
Clonostachys rosea [15] = test: Toxicity against Bionectria ochroleuca I61 assessed as inhibition of conidial germination at 0.048 to 0.292 mg/ml measured every 24 hr intervals over 192 hr
Clonostachys rosea [16] = test: Toxicity against Bionectria ochroleuca I62 assessed as inhibition of mycelial growth at 0.048 to 0.292 mg/ml measured every 24 hr intervals over 192 hr
Clonostachys rosea [17] = test: Toxicity against Bionectria ochroleuca I62 assessed as inhibition of conidial germination at 0.048 to 0.292 mg/ml measured every 24 hr intervals over 192 hr
Clonostachys rosea [18] = test: Toxicity against Bionectria ochroleuca I61 assessed as inhibition of mycelial growth at 0.048 to 0.292 mg/ml measured every 24 hr intervals over 192 hr
Clonostachys rosea [19] = test: Toxicity against Bionectria ochroleuca I60 assessed as inhibition of conidial germination at 0.048 to 0.292 mg/ml measured every 24 hr intervals over 192 hr
Clonostachys rosea [20] = test: Toxicity against Bionectria ochroleuca assessed as inhibition of mycelial growth at 0.048 to 0.292 ug/ml measured every 24 hr intervals over 192 hr
Clonostachys rosea [21] = test: Toxicity against Bionectria ochroleuca I19 assessed as inhibition of conidial germination at 0.048 to 0.292 mg/ml measured every 24 hr intervals over 192 hr
Clonostachys rosea [22] = test: Toxicity against Bionectria ochroleuca assessed as inhibition of conidial germination at 0.048 to 0.292 ug/ml measured every 24 hr intervals over 192 hr
Clonostachys rosea [23] = test: Toxicity against Bionectria ochroleuca I60 assessed as inhibition of mycelial growth at 0.048 to 0.292 mg/ml measured every 24 hr intervals over 192 hr
Clonostachys rosea [24] = test: Toxicity against Bionectria ochroleuca I19 assessed as inhibition of mycelial growth at 0.048 to 0.292 mg/ml measured every 24 hr intervals over 192 hr
Clonostachys rosea [25] = test: Toxicity against Bionectria ochroleuca assessed as inhibition of conidial germination at 0.001 to 0.009 ug/ml
Clonostachys rosea [26] = test: Toxicity against Bionectria ochroleuca assessed as inhibition of mycelial growth at 0.001 to 0.009 ug/ml
Clonostachys rosea [27] = test: Toxicity against Bionectria ochroleuca assessed as inhibition of conidial germination at 0.12 to 0.75 mg/ml measured every 24 hr intervals over 192 hr
Clonostachys rosea [28] = test: Toxicity against Bionectria ochroleuca assessed as inhibition of mycelial growth at 0.12 to 0.75 mg/ml measured every 24 hr intervals over 192 hr

O=C1C2CC=CCC2C(=O)N1SC(Cl)(Cl)Cl (stereo not drawn) [CAPTAN]
growth inhibition (GI) (Clonostachys rosea [1]): 81.8%
growth inhibition (GI) (Clonostachys rosea [2]): 86.2%
inhibition (INH) (Clonostachys rosea [3]): 61%
growth inhibition (GI) (Clonostachys rosea [4]): 75%
growth inhibition (GI) (Clonostachys rosea [5]): 82.2%
growth inhibition (GI) (Clonostachys rosea [6]): 81.8%

CC[C@H](C)[C@H]1O[C@]2(C=C[C@@H]1C)C[C@@H]1C[C@@H](C/C=C(\C)[C@@H](O[C@H]3C[C@H](OC)[C@@H](O[C@H]4C[C@H](OC)[C@@H](O)[C@H](C)O4)[C@H](C)O3)[C@@H](C)/C=C/C=C3\CO[C@@H]4[C@H](O)C(C)=C[C@@H](C(=O)O1)[C@]34O)O2.CO[C@H]1C[C@H](O[C@H]2[C@H](C)O[C@@H](O[C@@H]3/C(C)=C/C[C@@H]4C[C@@H](C[C@]5(C=C[C@H](C)[C@@H](C(C)C)O5)O4)OC(=O)[C@@H]4C=C(C)[C@@H](O)[C@H]5OC/C(=C\C=C\[C@@H]3C)[C@]54O)C[C@@H]2OC)O[C@@H](C)[C@@H]1O [ABAMECTIN]
growth inhibition (GI) (Clonostachys rosea [7]): 9.64%
growth inhibition (GI) (Clonostachys rosea [8]): 9.79%
growth inhibition (GI) (Clonostachys rosea [9]): 6.51%
inhibition (INH) (Clonostachys rosea [10]): 1%
growth inhibition (GI) (Clonostachys rosea [11]): 5.79%
growth inhibition (GI) (Clonostachys rosea [12]): 0.5%

CC(C)NC(=O)N1CC(=O)N(c2cc(Cl)cc(Cl)c2)C1=O [IPRODIONE]
growth inhibition (GI) (Clonostachys rosea [13]): 79%
inhibition (INH) (Clonostachys rosea [14]): 55%

CC1(C)C(C(=O)OC(C#N)c2cccc(Oc3ccccc3)c2)C1(C)C (stereo not drawn) [FENPROPATHRIN]
inhibition (INH) (Clonostachys rosea [15]): 10.7%
growth inhibition (GI) (Clonostachys rosea [16]): 10.77%
inhibition (INH) (Clonostachys rosea [17]): 9.9%
growth inhibition (GI) (Clonostachys rosea [18]): 7.16%
inhibition (INH) (Clonostachys rosea [19]): 10.1%
growth inhibition (GI) (Clonostachys rosea [20]): 1%
inhibition (INH) (Clonostachys rosea [21]): 12.7%
inhibition (INH) (Clonostachys rosea [22]): 6%
growth inhibition (GI) (Clonostachys rosea [23]): 3.93%
growth inhibition (GI) (Clonostachys rosea [24]): 8.18%

CCCCOC(=O)[C@@H](C)Oc1ccc(Oc2ccc(C(F)(F)F)cn2)cc1 [FLUAZIFOP-P-BUTYL]
inhibition (INH) (Clonostachys rosea [25]): 2.2%
growth inhibition (GI) (Clonostachys rosea [26]): 3.6%

CC12CC1(C)C(=O)N(c1cc(Cl)cc(Cl)c1)C2=O (stereo not drawn) [PROCYMIDONE]
inhibition (INH) (Clonostachys rosea [27]): 59%
growth inhibition (GI) (Clonostachys rosea [28]): 66%

— ChEMBL document CHEMBL3044654, “Sensitivity of four isolates of Clonostachys rosea to pesticides used in the strawberry crop in Brazil” (2012)
